Experimental data taken from article PMC6273231 (Molecules, 2016).

molecular target: influenza virus neuraminidase (NA) (Influenza A virus, UniProt Q6DPL2); details: enzyme inhibition assay in vitro
Sequence (Q6DPL2 whole entry, looked up): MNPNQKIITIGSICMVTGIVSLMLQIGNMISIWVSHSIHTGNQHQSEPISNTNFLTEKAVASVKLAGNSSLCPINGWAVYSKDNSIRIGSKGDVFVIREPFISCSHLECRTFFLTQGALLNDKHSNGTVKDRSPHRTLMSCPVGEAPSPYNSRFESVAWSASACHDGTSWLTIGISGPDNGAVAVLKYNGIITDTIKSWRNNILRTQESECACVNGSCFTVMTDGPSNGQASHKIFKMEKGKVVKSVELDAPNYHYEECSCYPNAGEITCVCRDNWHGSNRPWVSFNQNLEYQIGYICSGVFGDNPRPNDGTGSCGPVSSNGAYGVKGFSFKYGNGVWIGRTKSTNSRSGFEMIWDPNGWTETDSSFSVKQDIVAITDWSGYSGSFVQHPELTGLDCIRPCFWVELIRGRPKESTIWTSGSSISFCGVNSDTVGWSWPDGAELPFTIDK

| Structure (SMILES) | NA inhibitory activity compared with the positive control Oseltamivir acid (in words) |
| --- | --- |
| C[C@]12C[C@@H](O)[C@@H]3C[C@@]1(O[C@@H]1O[C@H](CO)[C@@H](O)[C@H](O)[C@H]1O)[C@]3(COC(=O)c1ccccc1)C(=O)O2 [Albiflorin] | stronger activity against NA than Oseltamivir acid |
| C[C@@]12C[C@@]3(O)O[C@@H](O1)[C@]1(COC(=O)c4ccccc4)[C@H]3C[C@@]12O[C@@H]1O[C@H](COC(=O)c2ccccc2)[C@@H](O)[C@H](O)[C@H]1O [Benzoylpaeoniflorin] | stronger activity against NA than Oseltamivir acid |
| C[C@@]12C[C@@]3(O)O[C@@H](O1)[C@]1(COC(=O)c4ccccc4)[C@H]3C[C@@]12O[C@@H]1O[C@H](CO)[C@@H](O)[C@H](O)[C@H]1O [Paeoniflorin] | stronger activity against NA than Oseltamivir acid |
| O=C(OC[C@H]1O[C@@H](OC(=O)c2cc(O)c(O)c(O)c2)[C@H](OC(=O)c2cc(O)c(O)c(O)c2)[C@@H](OC(=O)c2cc(O)c(O)c(O)c2)[C@@H]1OC(=O)c1cc(O)c(O)c(O)c1)c1cc(O)c(O)c(O)c1 [pentagalloylglucose, Pentagalloyl glucose] | stronger activity against NA than Oseltamivir acid |
